From ChEMBL document CHEMBL4339212, “Novel 7-formyl-naphthyridyl-ureas derivatives as potential selective FGFR4 inhibitors: Design, synthesis, and biological activity studies” (Bioorg Med Chem, 2019)

Columns and labels:
Ephrin type-B receptor 1 = Ephrin type-B receptor 1 (Homo sapiens, UniProt P54762); experiment: Inhibition of EphB1 (unknown origin)
[1] = Toxicity in male BALB/c mouse assessed as induction of animal death at 450 mg/kg/day, ig dosed once daily for 4 weeks followed by rehabilitation for another 28 days; type: organism-based; details: in vivo, po, 672 h
[2] = Toxicity in female BALB/c mouse assessed as effect on body weight at 50 to 450 mg/kg/day, ig dosed once daily for 4 weeks followed by rehabilitation for another 28 days; type: organism-based; details: in vivo, po, 672 h
[3] = target: Tyrosine-protein kinase JAK1 (Homo sapiens, UniProt P23458); experiment: Inhibition of JAK1 (unknown origin)
Chain of Tyrosine-protein kinase JAK1 (P23458 whole entry): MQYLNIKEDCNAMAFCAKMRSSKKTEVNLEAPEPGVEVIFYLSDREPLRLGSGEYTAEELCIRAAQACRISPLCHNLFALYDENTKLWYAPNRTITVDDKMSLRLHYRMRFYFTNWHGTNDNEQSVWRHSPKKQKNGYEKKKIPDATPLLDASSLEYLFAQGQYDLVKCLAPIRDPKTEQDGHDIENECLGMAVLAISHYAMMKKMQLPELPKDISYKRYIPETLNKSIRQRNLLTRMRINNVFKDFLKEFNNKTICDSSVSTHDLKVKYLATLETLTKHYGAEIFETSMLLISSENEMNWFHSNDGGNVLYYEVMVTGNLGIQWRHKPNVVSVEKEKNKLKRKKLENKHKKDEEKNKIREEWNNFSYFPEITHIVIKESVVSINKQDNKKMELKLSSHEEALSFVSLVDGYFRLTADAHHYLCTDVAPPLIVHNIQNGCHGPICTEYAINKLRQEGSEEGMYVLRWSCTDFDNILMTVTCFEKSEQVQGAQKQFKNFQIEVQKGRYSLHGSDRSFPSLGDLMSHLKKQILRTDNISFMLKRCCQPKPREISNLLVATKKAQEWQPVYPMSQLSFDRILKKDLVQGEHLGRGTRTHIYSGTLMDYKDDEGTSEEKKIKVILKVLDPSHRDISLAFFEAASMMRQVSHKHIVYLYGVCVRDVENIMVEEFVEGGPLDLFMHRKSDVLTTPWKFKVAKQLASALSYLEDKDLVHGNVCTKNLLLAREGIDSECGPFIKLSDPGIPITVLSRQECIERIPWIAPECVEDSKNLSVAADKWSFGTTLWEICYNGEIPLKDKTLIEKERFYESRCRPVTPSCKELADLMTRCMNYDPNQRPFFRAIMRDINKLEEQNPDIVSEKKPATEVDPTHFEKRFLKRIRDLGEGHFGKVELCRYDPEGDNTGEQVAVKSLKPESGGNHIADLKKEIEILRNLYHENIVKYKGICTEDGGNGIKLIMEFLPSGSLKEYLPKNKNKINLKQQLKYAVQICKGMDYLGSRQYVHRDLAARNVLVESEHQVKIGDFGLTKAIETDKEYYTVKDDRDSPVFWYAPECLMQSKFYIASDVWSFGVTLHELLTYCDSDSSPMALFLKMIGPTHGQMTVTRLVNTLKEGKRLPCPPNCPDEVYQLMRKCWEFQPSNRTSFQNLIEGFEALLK

Hep 3B2 = experiment: Antitumor activity against human Hep3B cells xenografted in nude BALB/c mouse assessed as inhibition of tumor growth at 10 mg/kg bid for 14 days and measured twice per week relative to untreated control; type: functional; details: 336 h, read-out: TGI
[4] = target: Tyrosine-protein kinase SYK (Homo sapiens, UniProt P43405); experiment: Inhibition of SYK (unknown origin)
[5] = target: MAP kinase-activated protein kinase 2 (Homo sapiens, UniProt P49137); experiment: Inhibition of MAPKAPK2 (unknown origin)
Chain of MAP kinase-activated protein kinase 2 (P49137 whole entry): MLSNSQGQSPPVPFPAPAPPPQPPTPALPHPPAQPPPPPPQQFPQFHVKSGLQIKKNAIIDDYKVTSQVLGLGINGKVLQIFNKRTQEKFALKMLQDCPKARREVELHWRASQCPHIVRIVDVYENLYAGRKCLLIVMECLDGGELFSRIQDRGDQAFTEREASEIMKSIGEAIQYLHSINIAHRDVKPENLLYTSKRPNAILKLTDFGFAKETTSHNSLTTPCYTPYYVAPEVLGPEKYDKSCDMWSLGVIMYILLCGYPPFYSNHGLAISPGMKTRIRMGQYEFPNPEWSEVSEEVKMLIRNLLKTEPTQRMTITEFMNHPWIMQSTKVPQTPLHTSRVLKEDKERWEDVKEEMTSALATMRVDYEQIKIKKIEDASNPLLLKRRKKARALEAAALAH

[6] = Toxicity in female BALB/c mouse assessed as induction of animal death at 450 mg/kg/day, ig dosed once daily for 4 weeks followed by rehabilitation for another 28 days; type: organism-based; details: in vivo, po, 672 h
[7] = target: Hepatocyte growth factor receptor (Homo sapiens, UniProt P08581); experiment: Inhibition of MET (unknown origin)
Chain of Hepatocyte growth factor receptor (P08581 whole entry): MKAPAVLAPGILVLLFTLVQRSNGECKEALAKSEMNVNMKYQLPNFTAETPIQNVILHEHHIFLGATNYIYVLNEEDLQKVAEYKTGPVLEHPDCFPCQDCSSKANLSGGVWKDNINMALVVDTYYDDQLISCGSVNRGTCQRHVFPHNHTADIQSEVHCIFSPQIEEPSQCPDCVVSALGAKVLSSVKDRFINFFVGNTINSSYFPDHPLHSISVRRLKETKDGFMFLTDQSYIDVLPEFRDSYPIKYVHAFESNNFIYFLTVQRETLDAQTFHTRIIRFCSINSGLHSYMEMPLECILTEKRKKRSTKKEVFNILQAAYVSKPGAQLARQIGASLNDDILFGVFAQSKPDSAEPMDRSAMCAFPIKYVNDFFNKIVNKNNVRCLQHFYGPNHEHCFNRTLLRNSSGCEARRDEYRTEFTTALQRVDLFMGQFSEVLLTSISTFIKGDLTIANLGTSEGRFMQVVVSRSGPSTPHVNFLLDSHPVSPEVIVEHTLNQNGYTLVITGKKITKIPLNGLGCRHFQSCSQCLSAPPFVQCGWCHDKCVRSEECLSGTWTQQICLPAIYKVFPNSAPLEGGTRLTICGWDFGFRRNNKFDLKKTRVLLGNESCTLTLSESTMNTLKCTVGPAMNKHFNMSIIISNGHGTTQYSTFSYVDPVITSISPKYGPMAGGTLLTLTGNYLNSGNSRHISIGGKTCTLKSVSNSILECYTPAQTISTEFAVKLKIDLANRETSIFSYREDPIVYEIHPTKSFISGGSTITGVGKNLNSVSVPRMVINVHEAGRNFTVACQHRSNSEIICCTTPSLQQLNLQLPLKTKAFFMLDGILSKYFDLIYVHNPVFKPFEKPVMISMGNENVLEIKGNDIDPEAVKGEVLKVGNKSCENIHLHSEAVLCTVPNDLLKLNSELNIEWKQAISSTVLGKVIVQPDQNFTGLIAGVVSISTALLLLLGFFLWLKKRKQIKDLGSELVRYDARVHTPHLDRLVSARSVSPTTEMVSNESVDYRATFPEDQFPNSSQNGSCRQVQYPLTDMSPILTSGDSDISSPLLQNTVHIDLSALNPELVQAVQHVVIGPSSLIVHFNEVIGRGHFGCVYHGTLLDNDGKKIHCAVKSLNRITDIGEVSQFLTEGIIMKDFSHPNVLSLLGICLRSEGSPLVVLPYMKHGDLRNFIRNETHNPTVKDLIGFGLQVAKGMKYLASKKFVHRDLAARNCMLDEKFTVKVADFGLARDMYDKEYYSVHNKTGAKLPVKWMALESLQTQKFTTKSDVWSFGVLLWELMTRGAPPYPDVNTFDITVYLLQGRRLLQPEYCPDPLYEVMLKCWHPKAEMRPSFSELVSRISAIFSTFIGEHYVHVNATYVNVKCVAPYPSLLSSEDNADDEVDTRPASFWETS

Huh-7 [8] = experiment: cells; details: Homo sapiens, Huh-7, 72 h
Huh-7 [9] = experiment: Antitumor activity against human HuH7 cells xenografted in nude BALB/c mouse assessed as inhibition of tumor growth at 100 mg/kg bid for 14 days and measured twice per week relative to untreated control; type: functional; details: Huh-7, 336 h, read-out: TGI
[10] = target: Mast/stem cell growth factor receptor Kit (Homo sapiens, UniProt P10721); experiment: Inhibition of C-KIT (unknown origin)
Chain of Mast/stem cell growth factor receptor Kit (P10721 whole entry): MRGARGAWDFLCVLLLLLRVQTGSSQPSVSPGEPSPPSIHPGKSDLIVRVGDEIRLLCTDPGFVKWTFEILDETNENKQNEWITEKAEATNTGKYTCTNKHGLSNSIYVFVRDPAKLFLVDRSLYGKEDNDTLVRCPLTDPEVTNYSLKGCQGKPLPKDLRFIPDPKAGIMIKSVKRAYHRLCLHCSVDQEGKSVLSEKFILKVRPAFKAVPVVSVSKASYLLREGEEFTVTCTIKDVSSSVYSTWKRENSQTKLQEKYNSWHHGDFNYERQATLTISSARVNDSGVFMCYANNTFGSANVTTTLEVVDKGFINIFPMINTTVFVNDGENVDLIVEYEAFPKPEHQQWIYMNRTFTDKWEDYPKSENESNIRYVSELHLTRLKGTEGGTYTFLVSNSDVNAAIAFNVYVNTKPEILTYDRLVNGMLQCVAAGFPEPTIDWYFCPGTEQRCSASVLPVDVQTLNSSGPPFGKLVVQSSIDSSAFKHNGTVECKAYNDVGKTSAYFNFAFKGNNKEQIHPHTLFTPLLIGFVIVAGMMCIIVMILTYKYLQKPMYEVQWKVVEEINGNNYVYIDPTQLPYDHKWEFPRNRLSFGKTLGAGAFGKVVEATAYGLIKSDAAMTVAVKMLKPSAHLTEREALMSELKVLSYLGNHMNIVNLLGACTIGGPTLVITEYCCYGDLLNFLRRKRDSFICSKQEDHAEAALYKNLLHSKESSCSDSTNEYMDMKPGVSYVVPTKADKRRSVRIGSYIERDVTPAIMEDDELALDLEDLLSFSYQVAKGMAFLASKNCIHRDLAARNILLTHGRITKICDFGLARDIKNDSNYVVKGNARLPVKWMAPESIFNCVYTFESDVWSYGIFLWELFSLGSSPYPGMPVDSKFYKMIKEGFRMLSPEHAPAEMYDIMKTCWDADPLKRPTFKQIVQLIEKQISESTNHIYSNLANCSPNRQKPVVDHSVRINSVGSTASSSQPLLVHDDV

[11] = Toxicity in male BALB/c mouse at 50 to 450 mg/kg/day, ig dosed once daily for 4 weeks followed by rehabilitation for another 28 days; type: organism-based; details: in vivo, po

Chain of Ephrin type-B receptor 1 (P54762 whole entry): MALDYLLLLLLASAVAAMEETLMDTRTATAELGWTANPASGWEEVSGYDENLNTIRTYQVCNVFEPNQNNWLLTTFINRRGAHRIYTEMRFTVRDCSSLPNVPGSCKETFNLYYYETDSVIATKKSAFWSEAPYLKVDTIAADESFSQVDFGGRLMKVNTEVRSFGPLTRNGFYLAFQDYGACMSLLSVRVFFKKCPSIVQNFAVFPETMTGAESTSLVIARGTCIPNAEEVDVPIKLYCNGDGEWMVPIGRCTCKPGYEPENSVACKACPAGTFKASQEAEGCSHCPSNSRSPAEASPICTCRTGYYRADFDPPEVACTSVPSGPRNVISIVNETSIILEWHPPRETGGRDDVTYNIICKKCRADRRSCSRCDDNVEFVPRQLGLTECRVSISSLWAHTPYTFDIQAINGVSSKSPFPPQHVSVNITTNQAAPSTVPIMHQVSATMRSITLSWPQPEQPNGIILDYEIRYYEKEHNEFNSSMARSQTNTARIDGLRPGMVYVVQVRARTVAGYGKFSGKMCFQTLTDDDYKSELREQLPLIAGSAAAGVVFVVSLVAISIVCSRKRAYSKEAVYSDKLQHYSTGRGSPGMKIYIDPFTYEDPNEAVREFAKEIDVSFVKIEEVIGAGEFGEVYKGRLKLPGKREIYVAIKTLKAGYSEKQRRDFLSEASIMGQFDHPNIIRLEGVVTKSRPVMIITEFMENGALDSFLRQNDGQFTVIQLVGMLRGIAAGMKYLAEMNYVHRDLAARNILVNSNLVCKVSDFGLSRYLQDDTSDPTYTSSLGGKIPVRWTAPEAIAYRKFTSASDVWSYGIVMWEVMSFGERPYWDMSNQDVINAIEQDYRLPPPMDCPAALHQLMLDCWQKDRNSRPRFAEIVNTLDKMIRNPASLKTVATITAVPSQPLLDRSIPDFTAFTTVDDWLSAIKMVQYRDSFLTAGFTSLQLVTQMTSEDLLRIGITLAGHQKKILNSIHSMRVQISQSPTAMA

With `COC[C@@H](C)Nc1cc(NC(=O)N2CCCc3cc(CN4CCCCOC4=O)c(C=O)nc32)ncc1C#N` the IC50 (Ephrin type-B receptor 1) was greater than 10 µM, the Activity [1] was “Non-Toxic” and the Activity [2] was “Non-Toxic”. It also gave an IC50 [3] greater than 10 µM, an inhibition in vivo at 10 mg/kg (Hep 3B2) of 126% and an IC50 [4] greater than 10 µM. For the same compound, the IC50 [5] was greater than 10 µM, the Activity [6] was “Toxic” and the IC50 [7] was greater than 10 µM. It also gave an IC50 (Huh-7 [8]) of 2.5 nM, an inhibition in vivo at 100 mg/kg (Huh-7 [9]) of 70.8% and an IC50 [10] greater than 10 µM. It also gave an NOAEL at 672 h [11] of 450 mg/kg.
